The nature of data set [1]: In vitro metabolic stability in human liver microsomes. It is filed as in vitro ADME. The method, then:
To study gastric acid stability CFTRact-J027 (10 μM) was dissolved in simulated gastric fluid (0.2 NaCl, 0.7% HCl, pH 2) and incubated for 3 h at 37° C. To study in vitro metabolic stability CFTRact-J027 (5 μM) was incubated for specified times at 37° C. with human liver microsomes (1 mg protein/ml; Sigma-Aldrich) in potassium phosphate buffer (100 mM) containing 1 mM NADPH. After specified incubation periods the mixtures were chilled on ice, and 0.5 ml of ice-cold ethyl acetate was added. Samples were centrifuged for 15 min at 3000 rpm, the supernatants evaporated to dryness, and the residues were dissolved in 100 μL mobile phase (acetonitrile:water, 3:1) and assayed by liquid chromatography mass spectrometry (LC/MS). The solvent system consisted of a linear gradient from 5 to 95% acetonitrile over 16 min (0.2 ml/min flow). Mass spectra were acquired on a mass spectrometer (Waters 2695 and Micromass ZQ, Milford, Mass.) using electrospray (+) ionization, mass ranging from 100 to 1500 Da, cone voltage 40 V.
For orientation: Liver microsomes are vesicles of endoplasmic reticulum, rich in cytochrome P450 enzymes.

Another data set deals with cellular cAMP. The experiment in a line: GloSensor cAMP assay in FRT cells. It is filed as cell-based, rat. The following applies: 5 μM compound, 10 min, without or with 100 nM forskolin. The method, then: Intracellular cAMP activity was measured using a GloSensor luminescence assay (Promega Corp., Madison, Wisconson, USA). FRT null cells were stably transfected with the pGloSensor cAMP plasmid and plated onto white 96-well microplates and grown to confluence. Cells were washed three times with PBS and incubated with 5 μM CFTRact-J027 for 10 min in the absence and presence of 100 nM forskolin. cAMP was assayed according to the manufacturer's instructions.
Intracellular cAMP activity was measured using a GloSensor luminescence assay (Promega Corp., Madison, Wis., USA). FRT cells stably transfected with the pGloSensor cAMP plasmid (Promega Corp.) were cultured in white 96-well microplates (Corning Costar) overnight. Cells were then washed three times with PBS and incubated with 5 μM test compound for 10 min in the absence and presence of 100 nM forskolin.
cAMP assay. Intracellular cAMP activity was measured using a GloSensor luminescence assay (Promega Corp., Madison, Wisconson, USA). FRT null cells were stably transfected with the pGloSensor cAMP plasmid and plated onto white 96-well microplates and grown to confluence. […]
cAMP and cytotoxicity assays. Intracellular cAMP activity was measured using a GloSensor luminescence assay (Promega Corp., Madison, Wis., USA). […]
A general note: Changes in cAMP serve as a functional read-out for many G protein-coupled receptors.

The next data set concerns tear fluid secretion. It is filed as in vivo, mouse. The following applies: wild-type mice; B074 100 μM, J027 and K089 50 μM, VX-770 10 μM, cholera toxin 0.1 μg/mL, forskolin 20 μM, IBMX 250 μM.
In another data set the target is human wildtype CFTR (Homo sapiens, UniProt P13569). As to the kind of experiment: Short-circuit current (Isc) in FRT cells expressing human wild-type CFTR.
Data set [2] in a line: Pharmacokinetics in mice (plasma LC/MS). It is filed as in vivo, mouse. The method, then: (§1) Blood was collected at 15, 30, 60, 150, 240 and 360 min after treatment by orbital puncture and centrifuged at 5000 rpm for 15 min to separate plasma. Plasma samples (60 μL) were mixed with 300 μL acetonitrile and centrifuged at 13000 rpm for 20 min, and 90 μL of the supernatant was used for LC/MS. The solvent system consisted of a linear gradient from 5 to 95% acetonitrile over 16 min (0.2 ml/min flow). Mass spectra was acquired on a mass spectrometer (Waters 2695 and Micromass ZQ) using electrospray (+) ionization, mass ranging from 100 to 1500 Da, cone voltage 40 V. Calibration standards were prepared in plasma from untreated mice to which known amounts of CFTRact-J027 were added.
as §1, with “Pharmacokinetics. […] Blood” for “Blood”

“And” between values parts separate entries of the source, which are not always exact repeats. Identical values can stand only once. “Also recorded” adds a separate entry of the source.

Chain of human wildtype CFTR (P13569 whole entry): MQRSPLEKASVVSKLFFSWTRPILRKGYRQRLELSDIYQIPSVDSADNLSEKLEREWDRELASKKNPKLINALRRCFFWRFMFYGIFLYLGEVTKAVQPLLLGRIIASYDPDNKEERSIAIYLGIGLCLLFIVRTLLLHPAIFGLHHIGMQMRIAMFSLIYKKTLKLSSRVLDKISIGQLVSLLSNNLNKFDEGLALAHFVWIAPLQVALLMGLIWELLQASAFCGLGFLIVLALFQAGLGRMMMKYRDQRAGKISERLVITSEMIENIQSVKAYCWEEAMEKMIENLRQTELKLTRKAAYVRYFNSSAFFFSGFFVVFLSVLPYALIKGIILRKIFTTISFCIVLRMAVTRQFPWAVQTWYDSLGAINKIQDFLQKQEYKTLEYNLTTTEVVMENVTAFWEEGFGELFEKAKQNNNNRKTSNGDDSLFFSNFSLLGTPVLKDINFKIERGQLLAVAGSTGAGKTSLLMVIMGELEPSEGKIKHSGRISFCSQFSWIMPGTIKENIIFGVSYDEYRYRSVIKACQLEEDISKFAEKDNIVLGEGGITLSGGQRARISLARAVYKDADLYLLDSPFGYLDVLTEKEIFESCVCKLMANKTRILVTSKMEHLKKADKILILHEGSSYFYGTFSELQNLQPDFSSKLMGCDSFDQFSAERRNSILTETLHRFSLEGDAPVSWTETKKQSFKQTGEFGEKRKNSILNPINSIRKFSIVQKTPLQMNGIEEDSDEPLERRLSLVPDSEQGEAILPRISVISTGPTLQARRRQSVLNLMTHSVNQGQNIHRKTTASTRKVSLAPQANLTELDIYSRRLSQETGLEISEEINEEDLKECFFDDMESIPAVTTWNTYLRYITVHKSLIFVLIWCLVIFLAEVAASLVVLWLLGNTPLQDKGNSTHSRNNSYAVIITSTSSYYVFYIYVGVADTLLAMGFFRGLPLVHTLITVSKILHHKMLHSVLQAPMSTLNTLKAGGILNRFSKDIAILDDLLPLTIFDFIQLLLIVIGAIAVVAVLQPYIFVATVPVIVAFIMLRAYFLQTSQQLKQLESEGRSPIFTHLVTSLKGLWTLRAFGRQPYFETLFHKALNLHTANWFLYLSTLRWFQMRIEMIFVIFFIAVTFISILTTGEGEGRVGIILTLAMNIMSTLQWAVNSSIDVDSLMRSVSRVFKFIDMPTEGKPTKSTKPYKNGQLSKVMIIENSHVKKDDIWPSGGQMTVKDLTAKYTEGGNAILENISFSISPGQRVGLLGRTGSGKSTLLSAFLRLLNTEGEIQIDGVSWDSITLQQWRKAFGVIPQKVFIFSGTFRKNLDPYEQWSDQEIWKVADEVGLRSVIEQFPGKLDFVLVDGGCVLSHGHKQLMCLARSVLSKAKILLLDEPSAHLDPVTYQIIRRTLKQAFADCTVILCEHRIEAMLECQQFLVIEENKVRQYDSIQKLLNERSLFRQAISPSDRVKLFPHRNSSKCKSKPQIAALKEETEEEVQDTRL

By half-life is commonly meant the time needed for the level to fall by half in the phase considered. What is called EC50 is the concentration at which the effect is half-maximal. With `Nc1ccc([N+](=O)[O-])cc1-c1nc2ccccc2n(Cc2ccccc2)c1=O` [CFTRact-J027, 3-(2-amino-5-nitrophenyl)-1-benzylquinoxalin-2(1H)-one], the “compound remaining at 60 min” value in data set [1] (human hepatic microsomes) is given as 34%. In addition, the half-life at 5 μM in data set [1] (human, liver microsomes, 5 μM, NADPH, read-out: elimination half-life in human hepatic microsomes) is ~35 min. Further, the “effect on cellular cAMP” value in the data set with cellular cAMP is “without causing elevation of cytoplasmic cAMP; also recorded: does not elevate cellular cAMP”. Further, the “tear fluid secretion after single topical dose” value with tear fluid secretion is listed as “increased tear fluid secretion by approximately two-fold for at least four hours”. Besides, the “CFTR activation at 3 μM” value at human wildtype CFTR (3 μM) is given as “nearly full activation”. Moreover, at human wildtype CFTR (EC50 for CFTR activation, FRT cells, wild-type CFTR, short-circuit current), the EC50 is ~0.2 µM and 0.2 µM. For the same compound, the “extent of CFTR activation (Isc)” value at human wildtype CFTR (forskolin produced little or no further increase in current) was “fully activated CFTR”. Besides, the “serum concentration at 150 min” value in data set [2] (10 mg/kg ip) is “undetectable”. Moreover, in data set [2] (10 mg/kg oral), the oral bioavailability entry is reported as “very low bioavailability; also recorded: minimal bioavailability” and the “serum concentration at other time points” value is on record as “undetectable”. Also, the half-life in data set [2] (female, CD1, mouse, serum, 10 mg/kg ip, read-out: serum elimination half-life) stood at 16 min. Moreover, the concentration at 30 min in data set [2] (female, CD1, mouse, serum, 10 mg/kg oral) was 180 nM.
